Results as given in patent US20080125358A1, “Methods for Chk2 inhibitor patient selection” (UNIVERSITY OF MASSACHUSETTS MEDICAL SCHOOL, priority 2006, published 2008).

Legend:
MCF-7 cells = test: Ionizing radiation-induced survivin expression, Western blotting; type: cell-based; conditions: MCF-7 cells transfected
Experimental: (§1) Tumor cell types were exposed to ionizing radiation at doses ranging between 5-10 Gray (Gy) using a ^137Cs source (Gammacell 40), or, alternatively, treated with adriamycin (0-100 nM, Sigma). Cells were harvested after 2-48 h, and analyzed by Western blotting. Antibodies were used having affinities for; i) survivin (1:1000, Novus Biologicals); ii) Chk2 (1:500; Upstate Biotechnology); iii) cytochrome c (1:100; BD Biosciences-Pharmingen); iv) COX-IV (1:500; BD Biosciences-Clontech); v) caspase-3 (1:1000, Cell Signaling Technology); vi) cleaved caspase-3 (1:1000, Cell Signaling Technology); vii) cyclin B1 (1:1000, GNS1, Santa Cruz Biotechnology, Inc.); viii) XIAP (1:1000; Transduction Laboratories); xi) β-actin (1:5000, clone AC-15, A5441; Sigma-Aldrich); and xii) Thr^68-phosphorylated Chk2 (Cell Signaling Technology).
For gene silencing by short interference RNA (siRNA), tumor cell types were transfected with control (VIII) or survivin-derived (S4) double stranded (ds) RNA oligonucleotides (50 nM) using oligofectamine (3 μl/well), as previously described. Beltrami et al., “Acute ablation of survivin uncovers p53-dependent mitotic checkpoint functions and control of mitochondrial apoptosis” J Biol Chem 279:2077-84 (2004). Alternatively, cells were transfected with control or SMART® pool siRNA oligonucleotides to Chk1 or Chk2 (Dharmacon) using oligofectamine. […]

HCT116 cells [1] = test: Colony formation assay in soft agar; type: cell-based; conditions: increasing doses of ionizing radiation
Experimental: Wild-type HCT116 cells were transduced with a replication deficient adenovirus encoding GFP, Chk2-DN, or Thr^34→Ala^34 survivin DN at an m.o.i. of 50. O'Connor et al., “A p34(cdc2) survival checkpoint in cancer” Cancer Cell 2:43-54 (2002). Twenty-four hours later, approximately 3×10^4 cells were treated with or without ionizing radiation, and suspended in 1.5 ml of DMEM plus 10% FBS and 0.35% bactoagar (BD) in 6-well culture plates containing 1.5 ml of 0.75% agarose in growth medium at the bottom layer. Plates were incubated at 37° C. in 5% CO2 for 2 weeks. Colonies were stained with 0.005% crystal violet (Sigma-Aldrich), and counted using a dissecting microscope under high-power field.

HCT116 cells [2] = test: Caspase activity and cell death by multiparametric flow cytometry after DNA damage; type: cell-based; conditions: p53+/+ or p53-/- HCT116 cells, ionizing radiation
Experimental: For gene silencing by short interference RNA (siRNA), tumor cell types were transfected with control (VIII) or survivin-derived (S4) double stranded (ds) RNA oligonucleotides (50 nM) using oligofectamine (3 μl/well), as previously described. Beltrami et al., “Acute ablation of survivin uncovers p53-dependent mitotic checkpoint functions and control of mitochondrial apoptosis” J Biol Chem 279:2077-84 (2004). Alternatively, cells were transfected with control or SMART® pool siRNA oligonucleotides to Chk1 or Chk2 (Dharmacon) using oligofectamine. A replication-deficient adenovirus expressing Chk2-DN was constructed using the pAd-Easy® system, and used at a multiple of infection (m.o.i.) of 50.
Tumor cell types were treated with or without ionizing radiation, harvested after 24 h, and analyzed for changes in cell cycle distribution by propidium iodide staining and flow cytometry. Alternatively, cells were exposed to ionizing radiation, and analyzed after 24-48 h for propidium iodide staining (red channel) and active caspase-3 activity (CaspaTag®, Intergen®, green channel), by simultaneous multiparametric flow cytometry. Dohi et al., “Mitochondrial survivin inhibits apoptosis and promotes tumorigenesis” J Clin Invest 114:1117-1127 (2004).

HCT116 clones #101, #102 = test: Conditional induction of apoptosis, propidium iodide staining and flow cytometry; type: cell-based; conditions: doxycycline induction plus adriamycin, adriamycin-sensitive clones
Text: Breast adenocarcinoma MCF-7, colon adenocarcinoma HCT116, or prostate adenocarcinoma PC3 cells were obtained from the American Type Culture Collection (ATCC, Manassas Va.), and maintained in culture as recommended by the supplier. Wild-type, p53^−/−, or Chk2^−/− HCT116 cells were kindly provided by Dr. B. Vogelstein (Johns Hopkins University, Baltimore, Md.). The rat insulinoma cell line INS-1 stably transfected with mitochondrially-targeted survivin fused to GFP was created as previously described. Dohi et al., “Mitochondrial survivin inhibits apoptosis and promotes tumorigenesis” J Clin Invest 114:1117-1127 (2004). Wild-type HCT116 cells were stably transfected to conditionally express a kinase-dead Asp^347 Asn^347 Chk2 dominant-negative (DN) cDNA under the control of a tetracycline (tet)-regulated promoter (tet-on system, Clontech), as described previously. Grossman et al., “Inhibition of melanoma tumor growth in vivo by survivin targeting” Proc. Natl. Acad. Sci. U.S.A. 98:635-640 (2001). Conditional induction of Chk2-DN was monitored after addition of 2 μg/ml doxycycline (dox).
[…] Alternatively, cells were exposed to ionizing radiation, and analyzed after 24-48 h for propidium iodide staining (red channel) and active caspase-3 activity (CaspaTag®, Intergen®, green channel), by simultaneous multiparametric flow cytometry. […]

[3] = system: HCT116 clones #102 and #202; test: Xenograft tumor model, HCT116 clones conditionally expressing Chk2-DN; type: in vivo, mice
Experimental: All examples involving animals were approved by an Institutional Animal Care and Use Committee. […] Approximately 2.5×10^6 cells were injected into each hindlimb flank of 6-8 week old female immunocompromised CB17 SCID/beige mice (i.e., thereby generating 2 tumors/mouse). […] Tumor growth was monitored with a caliper according to the formula ½ [length (mm)]×[width (mm)]^2. At the end of the experiment, tumors were excised, and frozen sections from the various groups were stained with control IgG or a FITC-conjugated antibody to HA, and analyzed by fluorescence microscopy.

[4] = system: prostate carcinoma PC3 cells; test: Survivin expression after DNA damage, Western blotting; type: cell-based, human; conditions: analyzed after 12 hours
Experimental: as §1

Chk2 = Chk2 (Homo sapiens, UniProt O96017); conditions: expressed and purified Chk2; cited from earlier work
Chk2, sequence (O96017 whole entry): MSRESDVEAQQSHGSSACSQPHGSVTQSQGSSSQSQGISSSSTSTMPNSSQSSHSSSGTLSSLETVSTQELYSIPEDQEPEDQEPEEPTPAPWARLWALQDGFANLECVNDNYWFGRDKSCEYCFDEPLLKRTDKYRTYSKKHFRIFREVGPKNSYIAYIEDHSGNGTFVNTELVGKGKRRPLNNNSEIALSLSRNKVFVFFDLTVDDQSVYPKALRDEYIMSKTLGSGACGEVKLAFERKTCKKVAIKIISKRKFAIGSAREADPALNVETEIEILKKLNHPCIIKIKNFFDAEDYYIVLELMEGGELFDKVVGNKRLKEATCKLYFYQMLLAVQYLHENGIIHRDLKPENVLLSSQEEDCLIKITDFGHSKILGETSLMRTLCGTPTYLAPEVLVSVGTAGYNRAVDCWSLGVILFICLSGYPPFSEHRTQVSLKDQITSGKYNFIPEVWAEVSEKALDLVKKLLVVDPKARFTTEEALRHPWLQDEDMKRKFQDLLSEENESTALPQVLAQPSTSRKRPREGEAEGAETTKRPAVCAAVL

## Chk2-DN: kinase-dead Asp347 to Asn347 Chk2 dominant-negative mutant, expressed by transfection, adenovirus or tet-on system
MCF-7 cells
  ionizing radiation-induced survivin expression: abolished the increase in survivin expression
HCT116 cells [1]
  colony formation in soft agar: nearly completely abolished
HCT116 cells [2]
  induction of caspase activity and cell death: comparable induction of caspase activity and cell death
HCT116 clones #101, #102
  induction of apoptosis: 2- to 4 fold

## Thr^34→Ala^34 survivin-DN: dominant-negative survivin mutant delivered by replication deficient adenovirus
HCT116 cells [1]
  colony formation in soft agar: nearly completely abolished

## COc1cccc2c1C(=O)c1c(O)c3c(c(O)c1C2=O)C[C@@](O)(C(=O)CO)C[C@@H]3O[C@H]1C[C@H](N)[C@H](O)[C@H](C)O1 [adriamycin]
[3]; adriamycin-resistant clone #202, SCID/beige mice
  effect on tumor growth: no effect
[3]; adriamycin-sensitive clone #102, SCID/beige mice, adriamycin 2 mg/kg
  inhibition of tumor growth: 50-60%
[4]
  survivin expression: concentration-dependent increase in survivin

## CN[C@@H]1C[C@H]2O[C@@](C)([C@@H]1OC)n1c3ccccc3c3c4c(c5c6ccccc6n2c5c31)C(=O)NC4O (stereo partly drawn) [UCN-01]
Chk2
  confirmation of Chk2 potency: could not be confirmed
